Results: patent US12398157B2, “Energy-efficient solvent-free method for producing metal chelates” (TECHNISCHE UNIVERSITAT CLAUSTHAL, priority 2017, dated 2025)

Assay: particle size distribution by laser light scattering
Type: physicochemical
Conditions: volumetric, product of working example 1
Excerpt: The product is obtained in a particularly finely divided form with a narrow particle size distribution. The latter can, for example, be seen from the ratio of the D values, D99, D90, D50, (D10). The D value indicates the percentage of particles smaller than the diameter given as the respective D value. The percentage is given as index, i.e.: D90= . . . means “90% of the particles have a (volumetrically determined) diameter of less than . . . ”. The associated data are obtained by means of laser light scattering.
The particle size distribution of the zinc bisglycinate produced as described in working example 1 and shown in FIG. 2a was examined more closely by means of laser light scattering. The results are shown in graph form in FIG. 2c.

D10 (10% of the particles have diameters of less than): 0.86 μm
D50 (50% of the particles have diameters of less than): 3.41 μm
D90 (90% of the particles have diameters of less than): 6.82 μm
D99 (99% of the particles have diameters of less than): 10.00 μm
Structure (SMILES): NCC(=O)[O-].NCC(=O)[O-].[Zn+2] [zinc bisglycinate, bis(glycinato-N,O)zinc]
